Measurements published in US8232401B2 (Japan Tobacco Inc., priority 2002, dated 2012).

Biological target: T1, HIV integrase (Human immunodeficiency virus type 1 group M subtype B, UniProt P12497, F1332H)
T1 construct: HIV integrase full length gene; made in house; host or cells: Escherichia coli BL21(DE3)
Assay: Determination of enzyme (HIV integrase) inhibitory activity (strand transfer, microtiter plate, absorbance at 450 nm)
Format: biochemical, HIV (Human Immunodeficiency Virus (type 1))
Settings: recombinant HIV integrase (F185H) expressed in E. coli; donor DNA on streptavidin plate, digoxigenin target DNA; 37° C.
Procedure: The following explains evaluation methods of the HIV integrase inhibitory activity of the compound of the present invention.
(i) Construction of Recombinant Integrase Gene Expression System
(ii) Production and Purification of Integrase Protein
Escherichia coli recombinant BL21(DE3) transformed with plasmid pET21a-IN-F185H obtained in (i) was shake cultured at 30° C. in a liquid medium containing ampicillin. When the culture reached the logarithmic growth phase, isopropyl-β-D-thiogalactopyranoside was added to promote expression of integrase gene. The culture was continued for 3 hrs to promote accumulation of the integrase protein. The recombinant E. coli was collected in pellets by centrifugal separation and preserved at −80° C.
The E. coli was suspended in Lysis buffer (20 mM HEPES (pH 7.5), 5 mM DTT, 10 mM CHAPS, 10% glycerol) containing 1M sodium chloride and subjected to repeat pressurization and depressurization for rupture, and centrifugal separation at 4° C., 40,000×g, 60 min to recover a water-soluble fraction (supernatant). This was diluted 10-fold with Lysis buffer free of sodium chloride, mixed with SP-Sepharose (Pharmacia Corporation) and stirred at 4° C. for 60 min to allow adsorption of integrase protein to the resin. The resin was washed with Lysis buffer containing 100 mM sodium chloride and the integrase protein was eluted with Lysis buffer containing 1M sodium chloride.
The eluted integrase protein solution was applied to a Superdex 75 (Pharmacia Corporation) column for gel filtration. The protein was eluted with Lysis buffer containing 1M sodium chloride.
The obtained fractions of the integrate protein were collected and preserved at −80° C.
(iii) Preparation of DNA Solution
The following DNA synthesized by Greiner was dissolved in TE buffer (10 mM Tris-hydrochloric acid (pH 8.0), 1 mM EDTA) and mixed with donor DNA, target DNA, each complementary strand (+ and − strands) to 1 μM. The mixture was heated at 95° C. for 5 min, 80° C. for 10 min, 70° C. for 10 min, 60° C. for 10 min, 50° C. for 10 min and 40° C. for 10 min and preserved at 25° C. to give a double stranded DNA, which was used for the test. Donor DNA (− strand having biotin attached to the 5′ terminal)
(iv) Determination of Enzyme (HIV Integrase) Inhibitory activity
The donor DNA was diluted with TE buffer to 10 nM, of which 50 μl was added to each well of streptavidin-coated microtiter plate (Roche) and allowed to adsorb at 37° C. for 60 min. The DNA was washed with phosphate buffer (Dulbecco PBS, Sanko Junyaku Co., Ltd.) containing 0.1% Tween 20 and phosphate buffer. Then, a reaction mixture (70 μl) having the following composition, a test substance (10 μl) diluted with the reaction mixture and […] integrase protein (10 μl) were added to each well and reacted at 37° C. for 60 min.
Then, 50 nM target DNA (1.0 μl) was added, reacted at 37° C. for 10 min and washed with phosphate buffer containing 0.1% Tween 20 to stop the reaction.
Then, 100 mU/ml peroxidase labeled anti-digoxigenin antibody solution (Roche, 100 μl) was added, and the mixture was reacted at 37° C. for 60 min, followed by washing with phosphate buffer containing 0.1% Tween 20.
A peroxidase color solution (Bio Rad, 100 μl) was added and allowed to react at room temperature for 4 min. The color reaction was stopped by adding 1N sulfuric acid (100 μl). The absorbance at 450 nm was measured.
The HIV integrase inhibitory activity (IC50) of the compound of the present invention was calculated from the inhibition rate according to the following formula. […] Evaluation of Antiviral Activity

Structure (SMILES)	IC50 [µM]
CN(C)c1cc(Cc2cccc(Cl)c2F)cc2c(=O)c(C(=O)O)cn(CCO)c12 [Example 3-38, 6-(3-Chloro-2-fluorobenzyl)-8-dimethylamino-(2-hydroxyethyl)-4-oxo-1,4-dihydroquinoline-3-carboxylic acid]	0.015
CCN(CC)c1ccccc1Cc1ccc2c(c1)c(=O)c(C(=O)O)cn2CCO [Example 3-42, 6-(2-Diethylaminobenzyl)-1-(2-hydroxyethyl)-4-oxo-1,4-dihydroquinoline-3-carboxylic acid]	0.72
C[C@H](CO)n1cc(C(=O)O)c(=O)c2cc(Cc3cccc(Cl)c3F)ccc21 [Example 3-24, (R)-6-(3-Chloro-2-fluorobenzyl)-1-(2-hydroxy-1-methylethyl)-4-oxo-1,4-dihydroquinoline-3-carboxylic acid]	0.039
NC(=O)Cn1cc(C(=O)O)c(=O)c2cc(Cc3cccc(Cl)c3Cl)ccc21 [Example 1-7, 1-Carbamoylmethyl-6-(2,3-Dichlorobenzyl)-4-oxo-1,4-dihydroquinoline-3-carboxylic acid]	0.067
CC(=O)Nc1cc(Cc2cccc(Cl)c2F)cc2c(=O)c(C(=O)O)cn(CCO)c12 [Example 3-39, 8-Acetylamino-6-(3-chloro-2-fluorobenzyl)-1-(2-hydroxyethyl)-4-oxo-1,4-dihydroquinoline-3-carboxylic acid]	0.049
O=C(O)c1cn(CCO)c2ccc(Cc3ccccc3-c3ccccc3)cc2c1=O [Example 1-86, 6-Biphenyl-2-ylmethyl-1-(2-hydroxyethyl)-4-oxo-1,4-dihydroquinoline-3-carboxylic acid]	0.15
CCOc1cc2c(cc1Cc1cccc(Cl)c1F)c(=O)c(C(=O)O)cn2[C@H](CO)C(C)C [Example 4-30, (S)-6-(3-Chloro-2-fluorobenzyl)-7-ethoxy-1-(1-hydroxymethyl-2-methylpropyl)-4-oxo-1,4-dihydroquinoline-3-carboxylic acid]	0.0029
O=C(O)c1cn(Cc2ccccc2-c2ccccc2)c2ccc(Cc3cccc(Cl)c3Cl)cc2c1=O [Example 1-20, 1-Biphenyl-2-ylmethyl-6-(2,3-dichlorobenzyl)-4-oxo-1,4-dihydroquinoline-3-carboxylic acid]	0.69
CS(=O)(=O)CCn1cc(C(=O)O)c(=O)c2cc(Cc3cccc(Cl)c3Cl)ccc21 [Example 1-41, 6-(2,3-Dichlorobenzyl)-1-(2-methanesulfonylethyl)-4-oxo-1,4-dihydroquinoline-3-carboxylic acid]	0.21
CN(C)S(=O)(=O)Cn1cc(C(=O)O)c(=O)c2cc(Cc3c(F)cccc3Cl)ccc21 [Example 1-77, 6-(2-Chloro-6-fluorobenzyl)-1-dimethylsulfamoylmethyl-4-oxo-1,4-dihydroquinoline-3-carboxylic acid]	0.063
Nn1cc(C(=O)O)c(=O)c2cc(Cc3cccc(Cl)c3Cl)ccc21 [Example 2-1, 1-Amino-6-(2,3-dichlorobenzyl)-4-oxo-1,4-dihydroquinoline-3-carboxylic acid]	0.17
CC(C)Oc1cc2c(cc1Cc1cccc(Cl)c1F)c(=O)c(C(=O)O)cn2[C@H](CO)C(C)(C)C [Example 4-20, (S)-6-(3-Chloro-2-fluorobenzyl)-1-[2,2-dimethyl-1-(hydroxymethyl)propyl]-7-isopropyloxy-4-oxo-1,4-dihydroquinoline-3-carboxylic acid]	0.0017
CCOc1cc2c(cc1Cc1cccc(Cl)c1F)c(=O)c(C(=O)O)cn2[C@H](CO)C(C)(C)C [Example 4-31, (S)-6-(3-Chloro-2-fluorobenzyl)-7-ethoxy-1-[2,2-dimethyl-1-(hydroxymethyl)propyl]-4-oxo-1,4-dihydroquinoline-3-carboxylic acid]	0.0021
CCC[C@@H](CO)n1cc(C(=O)O)c(=O)c2cc(Cc3cccc(Cl)c3F)cc(OC(C)C)c21 [Example 4-47, (S)-6-(3-Chloro-2-fluorobenzyl)-1-[1-(hydroxymethyl)butyl]-8-isopropyloxy-4-oxo-1,4-dihydroquinoline-3-carboxylic acid]	0.0023
O=C(O)c1cn(CCO)c2ccc(Cc3cccc4ccccc34)cc2c1=O [Example 1-11, 1-(2-Hydroxyethyl)-6-naphthalen-1-ylmethyl-4-oxo-1,4-dihydroquinoline-3-carboxylic acid]	0.18
O=C(O)c1cn(CCO)c2ncc(Cc3cccc(Cl)c3Cl)cc2c1=O [Example 3-86]	0.14
O=C(O)c1cn(CCO)c2c(OCC3CCCCC3)cc(Cc3cccc(Cl)c3F)cc2c1=O [Example 3-69, 6-(3-Chloro-2-fluorobenzyl)-8-cyclohexylmethoxy-1-(2-hydroxyethyl)-4-oxo-1,4-dihydroquinoline-3-carboxylic acid]	0.0043
COc1cc(Cc2c(F)ccc(Cl)c2F)cc2c(=O)c(C(=O)O)cn([C@@H](C)CO)c12 [Example 3-57, (S)-6-(3-Chloro-2,6-difluorobenzyl)-1-(2-hydroxy-1-methylethyl)-8-methoxy-4-oxo-1,4-dihydroquinoline-3-carboxylic acid]	0.015
O=C(O)c1cn(Cc2ccccc2)c2ccc(Cc3cccc(Cl)c3Cl)cc2c1=O [Example 1-15, 1-Benzyl-6-(2,3-dichlorobenzyl)-4-oxo-1,4-dihydroquinoline-3-carboxylic acid]	0.23
O=C(O)c1cn(CCO)c2c(NCCO)cc(Cc3cccc(Cl)c3F)cc2c1=O [Example 3-78, 6-(3-Chloro-2-fluorobenzyl)-1-(2-hydroxyethyl)-8-(2-hydroxyethylamino)-4-oxo-1,4-dihydroquinoline-3-carboxylic acid]	0.016
CCC[C@@H](CO)n1cc(C(=O)O)c(=O)c2cc(Cc3cccc(Cl)c3F)c(OC)cc21 [Example 4-38, (S)-6-(3-Chloro-2-fluorobenzyl)-1-[1-(hydroxymethyl)butyl]-7-methoxy-4-oxo-1,4-dihydroquinoline-3-carboxylic acid]	0.0033
CC(=O)NCCn1cc(C(=O)O)c(=O)c2cc(Cc3cccc(Cl)c3Cl)ccc21 [Example 1-48, 1-(2-Acetylaminoethyl)-6-(2,3-dichlorobenzyl)-4-oxo-1,4-dihydroquinoline-3-carboxylic acid]	0.38
Cc1cccc(Cc2ccc3c(c2)c(=O)c(C(=O)O)cn3CCO)c1Cl [Example 1-79, 6-(2-Chloro-3-methylbenzyl)-1-(2-hydroxyethyl)-4-oxo-1,4-dihydroquinoline-3-carboxylic acid]	0.077
CCOC(=O)NCCn1cc(C(=O)O)c(=O)c2cc(Cc3cccc(Cl)c3Cl)ccc21 [Example 1-49, 6-(2,3-Dichlorobenzyl)-1-(2-ethoxycarbonylaminoethyl)-4-oxo-1,4-dihydroquinoline-3-carboxylic acid]	0.053
COc1cc2c(cc1Cc1cccc(Cl)c1F)c(=O)c(C(=O)O)cn2CCO [Example 3-4, 6-(3-Chloro-2-fluorobenzyl)-1-(2-hydroxyethyl)-7-methoxy-4-oxo-1,4-dihydroquinoline-3-carboxylic acid]	0.011
C[C@@H](CO)n1cc(C(=O)O)c(=O)c2cc(Cc3cccc(Cl)c3F)ccc21 [Example 3-23, (S)-6-(3-Chloro-2-fluorobenzyl)-1-(2-hydroxy-1-methylethyl)-4-oxo-1,4-dihydroquinoline-3-carboxylic acid]	0.0072
N#Cc1cc2c(cc1Cc1cccc(Cl)c1Cl)c(=O)c(C(=O)O)cn2CCO [Example 3-27, 7-Cyano-6-(2,3-dichlorobenzyl)-1-(2-hydroxyethyl)-4-oxo-1,4-dihydroquinoline-3-carboxylic acid]	0.075
